Target: T1, KRas G12C (Homo sapiens, UniProt P01116, G12C)
T1 construct: NCI-H358 cells (ATCC CRL-5807) express KRas G12C
Assay: Inhibition of KRas G12C-dependent cell growth: Phospho-ERK in NCI-H358 cells
Format: cell-based
Settings: NCI-H358 cells expressing KRas G12C; Phospho-ERK (Thr202/Tyr204) normalized to GAPDH; 3 hours compound; 4 parameter fit
Protocol: The cellular inhibition of KRAs G12C by exemplary compounds of the present invention was determined by measuring the amount of a downstream marker of KRas activity, phosphorylated ERK (“Phospho-ERK”).
NCI-H358 cells (ATCC CRL-5807) express KRas G12C and were grown in RPMI medium supplemented with 10% fetal bovine serum, penicillin/streptomycin and 10 mM HEPES. Cells were plated in poly-D-Lysine coated 96-well plates at a concentration of 50,000 cells/well and allowed to attach for 8-12 hours. Diluted compounds were then added at a final concentration of 0.5% DMSO. After 3 hours, the medium was removed, 150 μL of 4% formaldehyde was added and the plates were incubated for 20 minutes. The plates were washed with PBS, and permeabilized using 150 μL of ice cold 100% methanol for 10 minutes. Non-specific antibody binding to the plates was blocked using 100 μL Licor Blocking Buffer (Li-Cor Biotechnology, Lincoln Nebr.) for 1 hour at room temperature. Positive control samples and samples lacking cells were parallel processed with test samples as standards.
The amount Phospho-ERK was determined using an antibody specific for the phosphorylated form of ERK and compared to the amount of GAPDH. Primary antibodies used for detection were added as follows: Phospho-ERK (Cell Signaling cs9101) diluted 1:500 and GAPDH (Millipore MAB374) diluted 1:5000 in Licor block+0.05% Tween 20. The plates were incubated for 2 hours at room temperature. The plates were washed with PBS+0.05% Tween 20.
Secondary antibodies used to visualize primary antibodies were added as follows: Anti-rabbit-680 diluted 1:1000 and Anti-mouse-800 diluted 1:1000 in Licor Block+0.05% Tween 20 and incubated for 1 hour at room temperature. The plates were washed with PBS+0.05% Tween 20. A 100 μL aliquot of PBS was added to each well and the plates were read on a LICOR AERIUS plate reader.
The pERK(Thr202/Tyr204) signal was normalized with the GAPDH signal and percent of DMSO control values were calculated. IC50 values were generated using a 4 parameter fit of the dose response curve.

T1 sequence (P01116 1-188 isoform P01116-2 G12C): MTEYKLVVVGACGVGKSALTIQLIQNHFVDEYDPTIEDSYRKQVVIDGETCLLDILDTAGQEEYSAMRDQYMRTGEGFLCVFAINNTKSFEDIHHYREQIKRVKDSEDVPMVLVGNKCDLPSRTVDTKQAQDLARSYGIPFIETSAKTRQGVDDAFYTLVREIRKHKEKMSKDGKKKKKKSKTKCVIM

Row | Compound | IC50
1 | C=C(F)C(=O)N1CCN(c2nc(OCC3CN(C)CC3(F)F)nc3c(F)c(-c4cccc5ccc(F)c(Cl)c45)ncc23)C[C@@H]1CC#N (single isomer, unassigned) [Example 179] | 224 nM
2 | C=C(F)C(=O)N1CCN(c2nc(OCC3CN(C)CC3(F)F)nc3c(F)c(-c4cccc5ccc(F)c(Cl)c45)ncc23)C[C@@H]1CC#N (single isomer, unassigned) [Example 180] | 362 nM
3 | C=CC(=O)N1CCN(c2ncnc3cc(-c4cc(O)cc5ccccc45)ncc23)CC1 [Example 1, 1-(4-(7-(3-hydroxynaphthalen-1-yl)pyrido[4,3-d]pyrimidin-4-yl)piperazin-1-yl)prop-2-en-1-one] | 1920 nM
4 | C=CC(=O)N1CCN(c2ncnc3cc(-c4cc(O)cc5ccccc45)ncc23)CC1C#N (centres unmarked) [Example 2, 1-acryloyl-4-(7-(3-hydroxynaphthalen-1-yl)pyrido[4,3-d]pyrimidin-4-yl)piperazine-2-carbonitrile] | 325 nM
5 | C=CC(=O)N1CCN(c2ncnc3cc(-c4c(O)cccc4F)ncc23)CC1 [Example 3, 1-(4-(7-(2-fluoro-6-hydroxyphenyl)pyrido[4,3-d]pyrimidin-4-yl)piperazin-1-yl)prop-2-en-1-one] | 16000 nM
6 | C=CC(=O)N1CCN(c2nc(OCCN3CCOCC3)nc3cc(-c4cc(O)cc5ccccc45)ncc23)CC1 [Example 4, 1-(4-(7-(3-hydroxynaphthalen-1-yl)-2-(2-morpholinoethoxy)pyrido[4,3-d]pyrimidin-4-yl)piperazin-1-yl)prop-2-en-1-one] | 3430 nM
7 | C=CC(=O)N1CCN(c2nc(OC[C@@H]3CCCN3C)nc3cc(-c4cc(O)cc5ccccc45)ncc23)CC1 [Example 6, 1-[4-[7-(3-hydroxy-1-naphthyl)-2-[[(2S)-1-methylpyrrolidin-2-yl]methoxy]pyrido[4,3-d]pyrimidin-4-yl]piperazin-1-yl]prop-2-en-1-one] | 300 nM
8 | C=C(F)C(=O)N1CCN(c2nc(OC[C@@H]3CCCN3C)nc3c(F)c(-c4cccc5ccccc45)ncc23)C[C@@H]1CC#N [Example 8, 2-[(2S)-4-[8-fluoro-2-[[(2S)-1-methylpyrrolidin-2-yl]methoxy]-7-(1-naphthyl)pyrido[4,3-d]pyrimidin-4-yl]-1-(2-fluoroprop-2-enoyl)piperazin-2-yl]acetonitrile] | 132 nM
9 | C=CC(=O)N1C2CCC1CN(c1nc(OC[C@@H]3CCCN3C)nc3c(F)c(-c4cc(O)cc5ccccc45)ncc13)C2 [Example 9, 1-[3-[8-fluoro-7-(3-hydroxy-1-naphthyl)-2-[[(2S)-1-methylpyrrolidin-2-yl]methoxy]pyrido[4,3-d]pyrimidin-4-yl]-3,8-diazabicyclo[3.2.1]octan-8-yl]prop-2-en-1-one] | 142 nM
10 | C=C(F)C(=O)N1CCN(c2nc(OC[C@@H]3CC(F)(F)CN3C)nc3c(F)c(-c4cccc5cccc(C)c45)ncc23)C[C@@H]1CC#N [Example 13, 2-((S)-4-(2-(((S)-4,4-difluoro-1-methylpyrrolidin-2-yl)methoxy)-8-fluoro-7-(8-methylnaphthalen-1-yl)pyrido[4,3-d]pyrimidin-4-yl)-1-(2-fluoroacryloyl)piperazin-2-yl)acetonitrile] | 127 nM
11 | C=C(F)C(=O)N1CCN(c2nc(OC[C@@H]3C[C@@H](F)CN3C)nc3c(F)c(-c4cccc5cccc(C)c45)ncc23)C[C@@H]1CC#N [Example 14, 2-[(2S)-4-[8-fluoro-2-[[(2S,4R)-4-fluoro-1-methyl-pyrrolidin-2-yl]methoxy]-7-(8-methyl-1-naphthyl)pyrido[4,3-d]pyrimidin-4-yl]-1-(2-fluoroprop-2-enoyl)piperazin-2-yl]acetonitrile] | 119 nM
12 | C=C(F)C(=O)N1CCN(c2nc(OC[C@H]3CCCN3C)nc3c(F)c(-c4cccc5cccc(C)c45)ncc23)C[C@@H]1CC#N [Example 16, 2-((S)-4-(8-fluoro-7-(8-methylnaphthalen-1-yl)-2-(((R)-1-methylpyrrolidin-2-yl)methoxy)pyrido[4,3-d]pyrimidin-4-yl)-1-(2-fluoroacryloyl)piperazin-2-yl)acetonitrile] | 118 nM
13 | C=C(F)C(=O)N1CCN(c2nc(OC[C@@H]3CC(F)(F)CN3C)nc3c(F)c(-c4cccc5cccc(Cl)c45)ncc23)C[C@@H]1CC#N [Example 21, 2-((S)-4-(7-(8-chloronaphthalen-1-yl)-2-(((S)-4,4-difluoro-1-methylpyrrolidin-2-yl)methoxy)-8-fluoropyrido[4,3-d]pyrimidin-4-yl)-1-(2-fluoroacryloyl)piperazin-2-yl)acetonitrile] | 105 nM

These reach a lower IC50. Values come first.

Row | IC50 | Compound
14 | 45 nM | C=CC(=O)N1CCN(c2nc(OC[C@@H]3CCCN3C)nc3cc(-c4cccc5ccccc45)ncc23)C[C@@H]1CC#N [Example 5, 2-[(2S)-4-[2-[[(2S)-1-methylpyrrolidin-2-yl]methoxy]-7-(1-naphthyl)pyrido[4,3-d]pyrimidin-4-yl]-1-prop-2-enoyl-piperazin-2-yl]acetonitrile]
15 | 7 nM | C=CC(=O)N1CCN(c2nc(OC[C@@H]3CCCN3C)nc3c(F)c(-c4cccc5ccccc45)ncc23)C[C@@H]1CC#N [Example 7, 2-[(2S)-4-[8-fluoro-2-[[(2S)-1-methylpyrrolidin-2-yl]methoxy]-7-(1-naphthyl)pyrido[4,3-d]pyrimidin-4-yl]-1-prop-2-enoyl-piperazin-2-yl]acetonitrile]
16 | 2 nM | C=CC(=O)N1CCN(c2nc(OC[C@@H]3CCCN3C)nc3c(F)c(-c4cccc5cccc(C)c45)ncc23)C[C@@H]1CC#N [Example 10, 2-[(2S)-4-[8-fluoro-7-(8-methyl-1-naphthyl)-2-[[(2S)-1-methylpyrrolidin-2-yl]methoxy]pyrido[4,3-d]pyrimidin-4-yl]-1-prop-2-enoyl-piperazin-2-yl]acetonitrile]
17 | 84 nM | C=C(F)C(=O)N1CCN(c2nc(OC[C@@H]3CCCN3C)nc3c(F)c(-c4cccc5cccc(C)c45)ncc23)C[C@@H]1CC#N [Example 11, 2-[(2S)-4-[8-fluoro-7-(8-methyl-1-naphthyl)-2-[[(2S)-1-methylpyrrolidin-2-yl]methoxy]pyrido[4,3-d]pyrimidin-4-yl]-1-(2-fluoroprop-2-enoyl)piperazin-2-yl]acetonitrile]
18 | 31 nM | Cc1cccc2cccc(-c3ncc4c(N5CCN(C(=O)/C=C/CF)[C@@H](CC#N)C5)nc(OC[C@@H]5CCCN5C)nc4c3F)c12 [Example 12, 2-[(2S)-1-[(E)-4-fluorobut-2-enoyl]-4-[8-fluoro-7-(8-methyl-1-naphthyl)-2-[[(2S)-1-methylpyrrolidin-2-yl]methoxy]pyrido[4,3-d]pyrimidin-4-yl]piperazin-2-yl]acetonitrile]
19 | 50 nM | C=C(F)C(=O)N1CCN(c2nc(OC[C@@H]3C[C@@H](OC)CN3C)nc3c(F)c(-c4cccc5cccc(C)c45)ncc23)C[C@@H]1CC#N [Example 15, 2-[(2S)-4-[8-fluoro-2-[[(2S,4R)-4-methoxy-1-methyl-pyrrolidin-2-yl]methoxy]-7-(8-methyl-1-naphthyl)pyrido[4,3-d]pyrimidin-4-yl]-1-(2-fluoroprop-2-enoyl)piperazin-2-yl]acetonitrile]
20 | 59 nM | Cc1cccc2cccc(-c3ncc4c(N5CCN(C(=O)/C=C/CF)[C@@H](CC#N)C5)nc(OC[C@@H]5C[C@@H](F)CN5C)nc4c3F)c12 [Example 17, 2-[(2S)-1-[(E)-4-fluorobut-2-enoyl]-4-[8-fluoro-2-[[(2S,4R)-4-fluoro-1-methyl-pyrrolidin-2-yl]methoxy]-7-(8-methyl-1-naphthyl)pyrido[4,3-d]pyrimidin-4-yl]piperazin-2-yl]acetonitrile]
21 | 50 nM | C=C(F)C(=O)N1CCN(c2nc(OC[C@@H]3CCCN3C)nc3c(F)c(-c4cccc5cccc(Cl)c45)ncc23)C[C@@H]1CC#N [Example 18, 2-((S)-4-(7-(8-chloronaphthalen-1-yl)-8-fluoro-2-(((S)-1-methylpyrrolidin-2-yl)methoxy)pyrido[4,3-d]pyrimidin-4-yl)-1-(2-fluoroacryloyl)piperazin-2-yl)acetonitrile]
22 | 2 nM | C=CC(=O)N1CCN(c2nc(OC[C@@H]3CCCN3C)nc3c(F)c(-c4cccc5cccc(Cl)c45)ncc23)C[C@@H]1CC#N [Example 19, 2-((S)-1-acryloyl-4-(7-(8-chloronaphthalen-1-yl)-8-fluoro-2-(((S)-1-methylpyrrolidin-2-yl)methoxy)pyrido[4,3-d]pyrimidin-4-yl)piperazin-2-yl)acetonitrile]
23 | 3 nM | C=CC(=O)N1CCN(c2nc(OC[C@@H]3CCCN3C)nc3c(F)c(-c4cncc5cccc(Cl)c45)ncc23)C[C@@H]1CC#N [Example 20, 2-[(2S)-4-[7-(5-chloro-4-isoquinolyl)-8-fluoro-2-[[(2S)-1-methylpyrrolidin-2-yl]methoxy]pyrido[4,3-d]pyrimidin-4-yl]-1-prop-2-enoyl-piperazin-2-yl]acetonitrile]

From patent US11548888B2, “KRas G12C inhibitors” (Mirati Therapeutics, Inc., priority 2019, dated 2023)
